The values below come from patent US20130243928A1 (priority 2007, published 2013).

A short description of this series: Distribution (dissolution) of resveratrol in an aliquot of wine with heating. It counts as physicochemical. Conditions: heating up to about 40° C., no added alcohol or other solvent. The source says:
The size, temperature and heating time for a batch of resveratrol concentrate will vary depending on how much resveratrol is needed to be added. […] Temperature can be measured by placing a thermometer in the batch of wine and timing the process.

Molecules are shown by their SMILES.

Consider `Oc1ccc(/C=C/c2cc(O)cc(O)c2)cc1` [resveratrol, trans-3,5,4′-trihydroxystilbene], for which the “amount of resveratrol that can be distributed in an aliquot of wine” value was “about 1.25 (wt/vol)”.
